# Experimental data as given in patent US20140004192A1, “PHARMACEUTICAL FORMULATIONS OF INDIBULIN AND USES THEREOF” (Ziopharm Oncology, Inc., priority 2012, published 2014).
# Read-outs that look alike come from different tables or passages of the source.
# Key:
# Membrane-permeation test = format: physicochemical; conditions: feed MFDS, 37° C.
# Procedure: The 10% A HPMCAS-H(HPMCAS high grade), 15% A HPMCAS-H, 20% A HPMCAS-H, 25% A HPMCAS-H, 25% A HPMCAS-M (HPMCAS medium grade) and 50% A HPMCAS-M SDD formulations were also evaluated in a membrane-permeation test at 37° C. in a temperature-controlled box. Test procedures were described, for example, in U.S. Pat. No. 7,611,630. For example, a membrane-permeation test of 10% A HPMCAS-H indibulin SDD was performed using the following procedures: • 1. Accurately weigh 1 mgA (10 mg of 10% A:HPMCAS-H SDD) into the outer-glass reservoir of the test apparatus. All samples are prepared in duplicates. • 2. Add 5 mL MFDS and start the timer. • 3. Cap each reservoir and vortex at medium setting for 1 minute. Stir at 100 rpm. • 4. After 9 minutes of addition of MFDS, add 5 mL of 80/20 (wt/wt) […]/Decane permeate to the inside of the membrane cells. • 5. After 1 minute (at 10 minutes) place a cell containing the permeate solution into the outer reservoir holding the feed/drug solution. Take a O-minute time point. Tilt the entire apparatus at a 45° angle to ensure that no air bubbles are trapped under the membrane. • 6. Place apparatus back on stir plate at 100 rpm. • 7. […]
# This test assessed the rate of solubilized drug indibulin that passed through a synthetic membrane from aqueous MFDS to an aqueous immiscible organic sink solution. […]
# [1] = Rat pharmacokinetic study, first study; format: in vivo, rats (Sprague Dawley, male); conditions: plasma; for bioavailability: ratio of dose-normalized AUC0-10 oral/IV
# Procedure: In the first study, the crystalline indibulin, 10% A and 25% A SDDs were administered p.o. at 10 and 15 mg/kg to rats (Sprague Dawley, male) and plasma concentrations of indibulin were determined at several time points.
# In particular, all rats used in this study were fasted 12 hours prior to dose, and food was returned 4 hours post dose. 10% A and 25% A indibulin HPMCAS SDD formulations (as prepared in Example 1(a)) were used in this study. Indibulin in crystalline form was suspended in 0.5% Methocel A at 10 mg/kg, and 15 mg/kg by vortexing and sonicating. The indibulin SDD formulations were made by combining 10% active indibulin SDD at 10 mg/kg and 15 mg/kg, 25% active indibulin SDD at 10 mg/kg and 15 mg/kg using a mortar with 0.5% Methocel A and using a pestle to gradually mix in to solution. There were six rats per group, all animals were weighed and dose volume calculated so that each rat received test article orally at a volume of 10 mL/kg. The first three rats in each group were bled at 0.5, 2, and 6 hours post dose; the remaining three rats in each group were bled at 1, 4, and 10 hours post dose. For blood collection at all time points all animals were anesthetized with an inhalation of 4% isoflurane and 1.5% oxygen, once it was determined that the animal was adequately anesthetized (no reaction to physical stimulation) using a capillary tube the orbital venous plexus was punctured and a volume of 1 mL of blood was collected in to a sodium heparin tube. Once the blood was collected the sodium heparin tube was inverted ten times, and placed on ice until centrifuged for 10 minutes at 2510 rpm. The plasma was decanted in to labeled Eppendorfs and stored at −80° C. until analyzed by HPLC with MS/MS Detection. All data were acquired using Applied Biosystems/MDS-Sciex Analyst Version 1.5, processed; reported using Watson Version 7.3.0.01TM, Thermo Fisher Scientific, Inc.; and are summarized in FIGS. 12 and 14 and Tables 16, 17, and 18. Table 17 is summary of maximum plasma concentrations of indibulin (Cmax), time for maximum plasma concentration to occur (tmax), and plasma area under the curve values (AUC0-t). […] Table 18 also includes comparative data for a solutol/propylene glycol indibulin formulation, administered by IV and orally.
# [2] = male, Sprague Dawley, po, First Study, rat p.o. 15 mg/kg (90 mg/m^2)
compound,measurement,setting,value
"O=C(Nc1ccncc1)C(=O)c1cn(Cc2ccc(Cl)cc2)c2ccccc12 [Bulk Crystalline Drug, indibulin]",Average Flux,Membrane-permeation test,0.10 μgA/cm^2 × min
same,Tmax,"[1]; Sprague Dawley, rat, Male S-D Rats, Oral (Gavage) 10 mg/kg",2 h
same,bioavailability,"[1]; Sprague Dawley, rat, Male S-D Rats, Oral (Gavage) 15 mg/kg, read-out: F (%)",1.5%
same,half-life,"[1]; Sprague Dawley, rat, Male S-D Rats, Oral (Gavage) 15 mg/kg, read-out: Terminal t1/2 (converted)",5.9 h
same,bioavailability,"[1]; Sprague-Dawley, rat, Male S-D Rats, Oral (Gavage) 10 mg/kg, read-out: F (%), absolute oral bioavailability",2.4%
same,Cmax,[1]; [2],6 ng/mL
same,Tmax,[1]; [2],1 h
same,Cmax,"[1]; male, Sprague Dawley, rat, po, 10 mg/kg, Male S-D Rats, Oral (Gavage) 10 mg/kg",18 ng/mL
same,AUC(0-t),"[1]; male, Sprague Dawley, rat, po, 10 mg/kg, Male S-D Rats, Oral (Gavage) 10 mg/kg, read-out: AUC0-10",63.6 ng·h/mL
same,AUC(0-t),"[1]; male, Sprague Dawley, rat, po, 15 mg/kg, First Study, rat p.o. 15 mg/kg (90 mg/m^2), read-out: AUC0-t",31 ng·h/mL
same,Cmax,"[1]; male, Sprague Dawley, rat, po, 15 mg/kg, Male S-D Rats, Oral (Gavage) 15 mg/kg",16.5 ng/mL
same,AUC(0-t),"[1]; male, Sprague Dawley, rat, po, 15 mg/kg, Male S-D Rats, Oral (Gavage) 15 mg/kg, read-out: AUC0-10",56.6 ng·h/mL
same,Tmax,"[1]; male, Sprague-Dawley, po, First Study, rat p.o. 10 mg/kg (60 mg/m^2)",2 h
same,Cmax,"[1]; male, Sprague-Dawley, rat, po, 10 mg/kg, First Study, rat p.o. 10 mg/kg (60 mg/m^2)",18 ng/mL
same,AUC(0-t),"[1]; male, Sprague-Dawley, rat, po, 10 mg/kg, First Study, rat p.o. 10 mg/kg (60 mg/m^2), read-out: AUC0-t",61 ng·h/mL
same,Cmax,"[1]; male, Sprague-Dawley, rat, po, 15 mg/kg, Male S-D Rats, Oral (Gavage) 15 mg/kg",13 ng/mL
